From paper PMC9495681, “Examining Topoisomers of a Snake-Venom-Derived Peptide for Improved Antimicrobial and Antitumoral Properties” (Biomedicines, 2022)
Converted amounts (≈) assume the structure as drawn. Square brackets hold non-standard residues; d marks the D form. Peptide text beside a SMILES is read from it.

Columns and labels:
[1] = test system: A. baumannii (ATCC 15308); assay: Minimal inhibitory concentration (MIC), broth microdilution; assay type: cell-based; details: Mueller Hinton Broth, 5 × 10^5 CFU/mL, 0.04% BSA and 0.002% acetic acid, 20–22 h at 37 °C, duplicate
Description: (§1) Assays were performed on three Gram-negative bacteria: E. coli (BW25113, Coli Genetic Stock Center), A. baumannii (ATCC 15308, CECT, Valencia, Spain), and Pseudomonas sp. (ATCC15915, CECT). The minimal inhibitory concentration (MIC) of each peptide was determined as described by Wiegand et al.. Peptide stocks in water were added to polypropylene 96-well plates (Greiner, Frickenhausen, Germany) and serially diluted from 100 to 0.2 μM. Fresh bacteria were incubated at 37 °C in Mueller Hinton Broth (MHB, Condalab, Torrejón de Ardoz, Spain) up to exponential growth and diluted to a final inoculum of 5 × 10^5 CFU/mL. BSA and acetic acid at 0.04% (w/v) and 0.002% (v/v) final concentration, respectively, were added to avoid peptide self-aggregation. Plates were incubated for 20–22 h at 37 °C. Each peptide was tested in duplicate. MIC values were the lowest peptide concentration where bacterial growth was not detected.

E. coli (BW25113) = assay: as above; assay type: cell-based; details: Mueller Hinton Broth, 5 × 10^5 CFU/mL, 0.04% BSA and 0.002% acetic acid, 20–22 h at 37 °C, duplicate
Description: as §1

[2] = test system: Pseudomonas sp. (ATCC15915); assay: as above; assay type: cell-based; details: Mueller Hinton Broth, 5 × 10^5 CFU/mL, 0.04% BSA and 0.002% acetic acid, 20–22 h at 37 °C, duplicate
Description: as §1

1BR3G human fibroblasts = assay: Peptide cytotoxicity (Cell Titer Blue viability); assay type: cell-based; details: 24 h treatment, medium with 2% FBS, Cell Titer Blue fluorescence, triplicate
Excerpt: Human HeLa S3 (cervix epithelial carcinoma), leukemia Jurkat E6.1 (T-cell lineage), U937 (histiocytic lymphoma), THP-1 (acute monocytic leukemia), and 1BR3G human fibroblasts were obtained from the Cell Lines Repository of the Institut Municipal d’Investigació Medica (Barcelona, Spain). BxPC3 (pancreas adenocarcinoma), A549 (lung carcinoma), SH-Sy5Y (neuroblastoma), Panc1 (epithelioid carcinoma), 786-O (renal cell adenocarcinoma), and HT29 (colorectal adenocarcinoma) were obtained from the Integrative Biomedical Materials and Nanomedicine lab at UPF (Barcelona, Spain). HeLa S3, Jurkat E6.1, U937, THP-1, Panc1, and 786-O were cultured in Roswell Park Memorial Institute medium (RPMI) supplemented with 10% fetal bovine serum (FBS) and 1% penicillin/streptomycin solution and maintained at 37 °C in a humidified atmosphere with 5% of CO2. 1BR3G, BxPC3, A549, and HT29 were cultured in Dulbecco’s Modified Eagle’s Medium (DMEM) supplemented with 10% FBS and 1% penicillin/streptomycin solution and maintained at 37 °C in a humidified atmosphere with 5% of CO2. SH-Sy5Y was cultured in DMEM supplemented with 15% FBS and 1% penicillin/streptomycin and maintained at 37 °C in a humidified atmosphere with 5% of CO2. Cultures were maintained at 10^5–10^6 cell/mL densities. For 1BR3G human fibroblasts, BxPC3, A549, SH-Sy5Y, Panc1, 786-O, and HT29 were split every time they reached 80–90% of confluence after harvesting with PBS and trypsin.
About 60,000 cells were added to different microfuge tubes containing 2-fold serial dilution of the peptide, with a final concentration in the range between 0.1–100 μM in RPMI containing 2% of FBS. After 30 min incubation at 37 °C and 5% of CO2, […] of medium containing approximately 10,000 treated cells were transferred to a 96-well plate. Then, 15 μL of Cell Titer Blue dye (Promega, Madison, WI, USA) was added, and plates were reincubated for 24 h. Fluorescence was read at 4 and 24 h after dye addition in a Synergy HTX (BioTek, Winooski, VT, USA) reader, with λexc = 560 nm and λem = 620 nm. In the case of adherent cultures, 5000 cells/well were seeded in 96-well plates. After 24 h incubation at 37 °C and 5% of CO2, the medium was removed, and a new medium with 2% of FBS containing the various 2-fold dilution of the peptides was added. After a further 30 min, 15 μL of Cell Titer Blue dye was added to each well, and the measurement was done as above. Relative viability was calculated relative to a cell with only 2% FBS in the corresponding medium as a control (100% viability). All assays were conducted in triplicate.

Serum stability = assay type: in vitro ADME; details: 0.5 mL each of human serum (Sigma-Aldrich) and peptide (1 mM in water), 37 °C with stirring, trichloroacetic acid treatment, HPLC / LC-MS; for remaining at 24 h, 0.5 mM: 24 h (1440 min), read-out: Peptide remaining in human serum after 24 h
Description: Briefly, 0.5 mL each of human serum (Sigma-Aldrich, St. Louis, MO, USA) and peptide (1 mM in water) were mixed and incubated for 24 h at 37 °C with stirring. Aliquots (0.1 mL) were taken at 0, 1, 5, 10, 30, 120, 360 and 1440 min and treated with 20 μL of trichloroacetic acid (15% (v/v) in water). The suspension was centrifuged for 30 min at 4 °C and 13,000 rpm, and the supernatant was analyzed by HPLC as described above.

SMILES	MIC A. baumannii [1] [µM]	MIC E. coli (E. coli (BW25113)) [µM]	MIC Pseudomonas sp. [2] [µM]	IC50 (cell viability) human fibroblast 1BR3G (1BR3G human fibroblasts)	remaining at 24 h, 0.5 mM (Serum stability) [%]	half-life at 0.5 mM (Serum stability; aliquots 0–1440 min, read-out: t1/2 in human serum) [h]
CC[C@@H](C)[C@@H](NC(=O)[C@@H](CCCCN)NC(=O)[C@@H](CCCCN)NC(=O)[C@@H](CC(C)C)NC(=O)[C@@H](CCCNC(=N)N)NC(=O)[C@@H](CCCCN)NC(=O)[C@@H](CCCCN)NC(=O)[C@H](NC(=O)[C@@H](CO)NC(=O)[C@@H](CCCCN)NC(=O)[C@@H](CCCCN)NC(=O)[C@H](NC(=O)[C@@H](CCCCN)NC(=O)[C@@H](CCCCN)NC(=O)[C@@H](Cc1ccccc1)NC(=O)[C@@H](Cc1ccccc1)NC(=O)[C@@H](CCCCN)NC(=O)[C@@H](CCCCN)NC(=O)[C@@H](Cc1ccccc1)NC(=O)[C@@H](CCCNC(=N)N)NC(=O)[C@H](N)CCCCN)C(C)C)C(C)C)C(=O)N[C@H](Cc1ccccc1)C(=O)N[C@H](CCCCN)C(=O)N[C@H](CCCCN)C(=O)N1CCC[C@@H]1C(=O)N[C@H](CCSC)C(=O)N[C@@H](C(=O)N[C@@H](C(=O)NCC(=O)N[C@@H](C(=O)N[C@@H](C(=O)N[C@@H](C(=O)N1CCC[C@@H]1C(=O)N[C@H](Cc1ccccc1)C(N)=O)[C@H](C)CC)[C@H](C)O)C(C)C)[C@H](C)CC)C(C)C [Ctn enantio] (H-[dK][dR][dF][dK][dK][dF][dF][dK][dK][dV][dK][dK][dS][dV][dK][dK][dR][dL][dK][dK][dI][dF][dK][dK][dP][dM][dV][dI]G[dV][dT][dI][dP][dF]-NH2)	1.56 (≈ 6.48 µg/mL)	0.39 (≈ 1.62 µg/mL)	0.39 (≈ 1.62 µg/mL)	2.7 µM	30	–
CC[C@H](C)[C@H](NC(=O)CNC(=O)[C@@H](NC(=O)[C@@H](NC(=O)[C@@H](NC(=O)[C@@H]1CCCN1C(=O)[C@@H](N)Cc1ccccc1)[C@@H](C)CC)[C@@H](C)O)C(C)C)C(=O)N[C@H](C(=O)N[C@@H](CCSC)C(=O)N1CCC[C@H]1C(=O)N[C@@H](CCCCN)C(=O)N[C@@H](CCCCN)C(=O)N[C@@H](Cc1ccccc1)C(=O)N[C@H](C(=O)N[C@@H](CCCCN)C(=O)N[C@@H](CCCCN)C(=O)N[C@@H](CC(C)C)C(=O)N[C@@H](CCCNC(=N)N)C(=O)N[C@@H](CCCCN)C(=O)N[C@@H](CCCCN)C(=O)N[C@H](C(=O)N[C@@H](CO)C(=O)N[C@@H](CCCCN)C(=O)N[C@@H](CCCCN)C(=O)N[C@H](C(=O)N[C@@H](CCCCN)C(=O)N[C@@H](CCCCN)C(=O)N[C@@H](Cc1ccccc1)C(=O)N[C@@H](Cc1ccccc1)C(=O)N[C@@H](CCCCN)C(=O)N[C@@H](CCCCN)C(=O)N[C@@H](Cc1ccccc1)C(=O)N[C@@H](CCCNC(=N)N)C(=O)N[C@@H](CCCCN)C(N)=O)C(C)C)C(C)C)[C@@H](C)CC)C(C)C [Ctn retro] (H-FPITVGIVMPKKFIKKLRKKVSKKVKKFFKKFRK-NH2)	1.56 (≈ 6.48 µg/mL)	0.78 (≈ 3.24 µg/mL)	1.56 (≈ 6.48 µg/mL)	–	–	–
CC[C@@H](C)[C@@H](NC(=O)CNC(=O)[C@H](NC(=O)[C@H](NC(=O)[C@H](NC(=O)[C@H]1CCCN1C(=O)[C@H](N)Cc1ccccc1)[C@H](C)CC)[C@H](C)O)C(C)C)C(=O)N[C@@H](C(=O)N[C@H](CCSC)C(=O)N1CCC[C@@H]1C(=O)N[C@H](CCCCN)C(=O)N[C@H](CCCCN)C(=O)N[C@H](Cc1ccccc1)C(=O)N[C@@H](C(=O)N[C@H](CCCCN)C(=O)N[C@H](CCCCN)C(=O)N[C@H](CC(C)C)C(=O)N[C@H](CCCNC(=N)N)C(=O)N[C@H](CCCCN)C(=O)N[C@H](CCCCN)C(=O)N[C@@H](C(=O)N[C@H](CO)C(=O)N[C@H](CCCCN)C(=O)N[C@H](CCCCN)C(=O)N[C@@H](C(=O)N[C@H](CCCCN)C(=O)N[C@H](CCCCN)C(=O)N[C@H](Cc1ccccc1)C(=O)N[C@H](Cc1ccccc1)C(=O)N[C@H](CCCCN)C(=O)N[C@H](CCCCN)C(=O)N[C@H](Cc1ccccc1)C(=O)N[C@H](CCCNC(=N)N)C(=O)N[C@H](CCCCN)C(N)=O)C(C)C)C(C)C)[C@H](C)CC)C(C)C [Ctn retroenantio] (H-[dF][dP][dI][dT][dV]G[dI][dV][dM][dP][dK][dK][dF][dI][dK][dK][dL][dR][dK][dK][dV][dS][dK][dK][dV][dK][dK][dF][dF][dK][dK][dF][dR][dK]-NH2)	1.56 (≈ 6.48 µg/mL)	0.78 (≈ 3.24 µg/mL)	0.78 (≈ 3.24 µg/mL)	4.3 µM	40	–
CC[C@@H](C)[C@@H](NC(=O)[C@@H](CCCCN)NC(=O)[C@@H](CCCCN)NC(=O)[C@@H](CC(C)C)NC(=O)[C@@H](CCCNC(=N)N)NC(=O)[C@@H](CCCCN)NC(=O)[C@H](N)CCCCN)C(=O)N[C@H](Cc1ccccc1)C(=O)N[C@H](CCCCN)C(=O)N[C@H](CCCCN)C(=O)N1CCC[C@@H]1C(=O)N[C@H](CCSC)C(=O)N[C@@H](C(=O)N[C@@H](C(=O)NCC(=O)N[C@@H](C(=O)N[C@@H](C(=O)N[C@@H](C(=O)N1CCC[C@@H]1C(=O)N[C@H](Cc1ccccc1)C(N)=O)[C@H](C)CC)[C@H](C)O)C(C)C)[C@H](C)CC)C(C)C [Ctn[15-34] enantio] (H-[dK][dK][dR][dL][dK][dK][dI][dF][dK][dK][dP][dM][dV][dI]G[dV][dT][dI][dP][dF]-NH2)	0.39 (≈ 0.925 µg/mL)	0.16 (≈ 0.379 µg/mL)	0.1 (≈ 0.237 µg/mL)	–	–	–
CC[C@H](C)[C@H](NC(=O)CNC(=O)[C@@H](NC(=O)[C@@H](NC(=O)[C@@H](NC(=O)[C@@H]1CCCN1C(=O)[C@@H](N)Cc1ccccc1)[C@@H](C)CC)[C@@H](C)O)C(C)C)C(=O)N[C@H](C(=O)N[C@@H](CCSC)C(=O)N1CCC[C@H]1C(=O)N[C@@H](CCCCN)C(=O)N[C@@H](CCCCN)C(=O)N[C@@H](Cc1ccccc1)C(=O)N[C@H](C(=O)N[C@@H](CCCCN)C(=O)N[C@@H](CCCCN)C(=O)N[C@@H](CC(C)C)C(=O)N[C@@H](CCCNC(=N)N)C(=O)N[C@@H](CCCCN)C(=O)N[C@@H](CCCCN)C(N)=O)[C@@H](C)CC)C(C)C [Ctn[15-34] retro] (H-FPITVGIVMPKKFIKKLRKK-NH2)	0.78 (≈ 1.85 µg/mL)	0.16 (≈ 0.379 µg/mL)	<0.05	≈ 15.84 μM	–	–
CC[C@@H](C)[C@@H](NC(=O)CNC(=O)[C@H](NC(=O)[C@H](NC(=O)[C@H](NC(=O)[C@H]1CCCN1C(=O)[C@H](N)Cc1ccccc1)[C@H](C)CC)[C@H](C)O)C(C)C)C(=O)N[C@@H](C(=O)N[C@H](CCSC)C(=O)N1CCC[C@@H]1C(=O)N[C@H](CCCCN)C(=O)N[C@H](CCCCN)C(=O)N[C@H](Cc1ccccc1)C(=O)N[C@@H](C(=O)N[C@H](CCCCN)C(=O)N[C@H](CCCCN)C(=O)N[C@H](CC(C)C)C(=O)N[C@H](CCCNC(=N)N)C(=O)N[C@H](CCCCN)C(=O)N[C@H](CCCCN)C(N)=O)[C@H](C)CC)C(C)C [Ctn[15-34] retroenantio] (H-[dF][dP][dI][dT][dV]G[dI][dV][dM][dP][dK][dK][dF][dI][dK][dK][dL][dR][dK][dK]-NH2)	0.39 (≈ 0.925 µg/mL)	0.16 (≈ 0.379 µg/mL)	0.1 (≈ 0.237 µg/mL)	–	–	15.3
